According to ChEMBL document CHEMBL5728364, “Compounds as autotaxin inhibitors and pharmaceutical compositions comprising the same” (2021):

Target: Autotaxin (Homo sapiens, UniProt Q13822)
Experiment: Inhibitory Activity Assay: Two-fold dilution of each test compound solution (10 μM, 100% dimethyl sulfoxide) is carried out on 96-well V bottom plate (Costar 3363). After ten-fold dilution of each the test compound solution (100% dimethyl sulfoxide) with deionized distilled water, 10 μL of the diluted each mpound solution (10% dimethyl sulfoxide) was aliquoted to a black flat bottom 96-well plate (Costar 3915). 50 μL of 1.6× Assay solution (224 mM NaCl, 80 mM Tris-HCl (pH 8.0), 8 mM KCl, 1.6 mM CaCl2, 1.6 mM MgCl2, and 1.6 mg/mL fatty acid free BSA) was added thereto, and subsequently 20 μL of 20 nM human ENPP2 solution (buffer solution: 140 mM NaCl, 50 mM Tris-HCl (pH 8.0), 5 mM KCl, 1 mM CaCl2, 1 mM MgCl2, and 1 mg/mL fatty acid free BSA) and 20 μL of 5 μM FS-3 solution (buffer solution:deionized distilled water) were added thereto, respectively, followed by mixing.

IC50 | Compound
2.5 nM | O=C(Cc1nc(-c2cnc(NC3Cc4ccccc4C3)nc2)no1)N1CCc2[nH]nnc2C1
2.9 nM | O=C(Cn1cc(-c2cnc(NCc3cccc(OC(F)(F)F)c3)nc2)nn1)N1CCc2[nH]nnc2C1
2.9 nM | O=C(NCCN1CCN(c2cnc(NC3Cc4ccccc4C3)nc2)CC1)c1ccc2[nH]c(=O)oc2c1
4.6 nM | NS(=O)(=O)NC1CCN(C(=O)Cc2nnc(-c3cnc(NC4Cc5ccccc5C4)nc3)o2)C1 (centres undefined)
